Key:
Format in all cases: in vivo, rat
awake rats [1] = experiment: Insulin dose response to reduce FFA with and without Compound A in awake rats
Experimental: FIG. 6 graphically represents how Compound A potentates the effect of insulin in reducing FFA levels. Shown are the dose response curves for the effect of insulin to reduce FFA obtained in the absence and presence of Compound A (0.5 mg/kg) in awake rats. Both insulin and Compound A were given via IP injection. Each data point is the mean±SEM of the maximal (peak effect) percent decrease in FFA levels from baseline from three to five rats.
The anti-lipolytic effects of Compound A were studied in awake rats. Animals were fasted overnight before experimental use. On the day of the experiment, animals were put in metabolic cages and left undisturbed to acclimate to the environment for 1-2 hrs. An infusion set (21 G×¾″, 0.8×19 mm U.T.W., 3½″, 9 cm tubing, volume 0.15 ml) was connected to the arterial catheter for blood sampling. A 1% sodium citrate saline solution was used to flush the lines. A pre-treatment blood sample was obtained from each animal to determine baseline values for FFA and TG. Compound A was given via oral gavage, sc injection, iv injection, or iv infusion, as described, for each different series of experiments. Blood samples were collected into serum separator tubes (Becton Dickinson, Franklin Lakes, N.J.) at pre-determined times, Blood was allowed to clot, and then centrifuged at 8000 rpm for 4 min at 4° C. The serum was stored at −80° C. and was thawed at 4° C. for determinations of FFA and TG contents.
The effect of insulin (0.005-1 U/kg) to reduce serum FFA was determined in the absence and presence of a single dose (0.5 mg/kg) of Compound A (FIG. 6). Baseline FFA levels before insulin administration in vehicle and Compound A treated groups were 0.84±0.01 and 0.92±0.02 mM, respectively. […] The insulin dose response to reduce FFA levels was then repeated in the presence of Compound A (0.5 mg/kg). Compound A alone (0.5 mg/kg) caused an 18% decrease in FFA levels. The doses of insulin that cause 50% decrease (ED50) in FFA levels in the absence and presence of Compound A were 0.4 and 0.1 U/kg, respectively.

rats fed high fat diet [2] = experiment: Oral glucose tolerance test after 2 week treatment in high fat diet rats; details: 5 mg/kg SC twice a day for 2 weeks, HF rats
Experimental: Animals were fasted overnight before taking samples. Compound A was given twice daily via a SC injection for 2 weeks at a dose of 5 mg/kg. Data is presented as mean±SEM from number of animals indicated in the parenthesis for each group. […] All experimental procedures were performed under a protocol approved by the IACUC (CV Therapeutics, Inc.) and in accordance with the recommendations set forth in the Guide for the Care and Use of Laboratory Animals published by the National Research Council. Male Sprague-Dawley rats (225-250 gm) with either one or two indwelling catheters (carotid and jugular) were obtained from Charles River Laboratories (Wilmington, Mass.). Animals were housed 1 per cage in a room maintained on a 12 h light/dark cycle (light on 06.00-18.00 h) under constant temperature (22-25° C.) and with ad libitum access to food and water. Rats on normal diet (Chow) were fed standard laboratory chow (12% fat, 60% carbohydrate, and 28% protein) throughout the study, while animals in the high fat (HF) diet group were given a diet (TD88137 from Harlan Teklad, Madison, Wis.) containing 42% fat, 43% carbohydrate, and 15% protein. […] On the day of the experiment, animals were put in metabolic cages and left undisturbed to acclimate to the environment for 1-2 hrs. An infusion set (21 G×¾″, 0.8×19 mm U.T.W., 3½″, 9 cm tubing, volume 0.15 ml) was connected to the arterial catheter for blood sampling. A 1% sodium citrate saline solution was used to flush the lines. A pre-treatment blood sample was obtained from each animal to determine baseline values for glucose, insulin, FFA and TG. Blood samples were collected into plasma and serum separator tubes (Becton Dickinson, Franklin Lakes, N.J.) at pre-determined time points. Oral glucose tolerance test (OGTT) was performed by giving 2 gm/kg of glucose load. […] For chronic experiments Compound A was administered twice a day via subcutaneous injection at a dose of 5 mg/kg for 2 weeks. […] Data form OGTT was analyzed by calculating area under the curve (AUC) using prism graphpad software. […]

rats fed high fat diet [3] = experiment: Chronic 2 week treatment: fasting glucose, insulin, FFA, TG in high fat diet rats; details: 5 mg/kg SC for 2 weeks, HF rats
Experimental: Animals were fasted overnight before taking samples. Compound A was given via SC injection for 2 weeks at a dose of 5 mg/kg. Data is presented as mean±SEM from number of animals indicated below each bar. […] Male Sprague-Dawley rats (225-250 gm) with either one or two indwelling catheters (carotid and jugular) were obtained from Charles River Laboratories (Wilmington, Mass.). Animals were housed 1 per cage in a room maintained on a 12 h light/dark cycle (light on 06.00-18.00 h) under constant temperature (22-25° C.) and with ad libitum access to food and water. Rats on normal diet (Chow) were fed standard laboratory chow (12% fat, 60% carbohydrate, and 28% protein) throughout the study, while animals in the high fat (HF) diet group were given a diet (TD88137 from Harlan Teklad, Madison, Wis.) containing 42% fat, 43% carbohydrate, and 15% protein. The anti-lipolytic effects of Compound A (see chemical name below) were studied in awake rats. On the day of the experiment, animals were put in metabolic cages and left undisturbed to acclimate to the environment for 1-2 hrs. An infusion set (21 G×¾″, 0.8×19 mm U.T.W., 3½″, 9 cm tubing, volume 0.15 ml) was connected to the arterial catheter for blood sampling. A 1% sodium citrate saline solution was used to flush the lines. A pre-treatment blood sample was obtained from each animal to determine baseline values for glucose, insulin, FFA and TG. Blood samples were collected into plasma and serum separator tubes (Becton Dickinson, Franklin Lakes, N.J.) at pre-determined time points. […] For chronic experiments Compound A was administered twice a day via subcutaneous injection at a dose of 5 mg/kg for 2 weeks. […] Statistical analysis of data from experiments with 2 treatment groups was performed using the unpaired Student's t-test. One way analysis of variance (ANOVA) followed by Newman-Keuls posthoc analysis was used for multiple comparisons. […] Differences between/among treatment groups were considered to be significant when the probability of their occurrence by chance alone was <0.05.

awake rats [4] = experiment: Cardiovascular measurements (heart rate, blood pressure) by telemetry in awake rats
Experimental: FIG. 7 presents the time-course of the effect of Compound A on (A) heart rate and (B) mean arterial pressure in awake rats as measured by telemetry. Compound A was given at various does (1, 5, and 25 mg·kg) by oral gavage at time 0. Each data point is the mean of individual values from the number of experiments indicated in parenthesis. The initial transient (10 Minutes) increase in heart rate subsequent to the injection of vehicle or Compound A is due to the stress caused by handling of the animals.
The effects of Compound A on heart rate and blood pressure were determined in a separate group of animals as heart rate is very easily affected in the un-anesthetized animal by animal handling and blood sampling. Rats were instrumented with radiotelemetered transmitters (Data Sciences) at least 3 weeks prior to experimentation. The ECG, blood pressure and temperature were recorded and heart rate calculated using a Dataquest ART Gold system (Version 2.2; Data Sciences Intl). The system consisted of a transmitter, i.e., biopotential sensor (Model TL11M2-C50-PXT), receivers (Model RPC-1), a consolidation matrix (BCM 100), a personal computer (Compaq DeskPro Series 3574) and Dataquest 4 software. Heart rate, blood pressure and temperature were measured at 5-minute intervals. Each recording lasted 10 seconds and all cardiac cycles within this period were averaged.

In the case of O[C@@H]1[C@H](O)[C@@H](CSc2ccccc2F)O[C@H]1n1cnc2c(N[C@@H]3CCC[C@H]3O)ncnc21 [Compound A, 2-{6-[((1R,2R)-2-hydroxycyclopentyl)amino]purin-9-yl}(4S,5S,2R,3R)-5-[(2-fluorophenylthio)methyl]oxolane-3,4-diol], the “decrease in FFA levels by Compound A alone” value (awake rats [1]; 0.5 mg/kg IP) is reported as 18%, the “leftward shift of the insulin dose-response to lower FFA” value (awake rats [1]; Compound A 0.5 mg/kg) is reported as 4 fold and the “glucose levels in OGTT” value (rats fed high fat diet [2]) is reported as “did not vary”. The “total integrated plasma insulin levels (AUC) in OGTT” value (rats fed high fat diet [2]) was “significantly (p<0.05) lower”, the “fasting FFA concentration vs placebo” value (rats fed high fat diet [3]) was “significantly lower” and the “fasting TG concentration vs placebo” value (rats fed high fat diet [3]) was “significantly lower”. For the same compound, the “fasting glucose concentration vs placebo” value (rats fed high fat diet [3]) was “no significant differences”, the “fasting insulin concentration vs placebo” value (rats fed high fat diet [3]) was “significantly lower” and the “decrease in heart rate (calculated as area under the curve)” value (awake rats [4]; 25 mg/kg oral gavage) was 13±1%. For the same compound, the “effect on heart rate on increasing the dose” value (awake rats [4]; 50 mg/kg (data not shown)) was “no further decrease”, the “effect on heart rate” value (awake rats [4]; 1 and 5 mg/kg oral gavage) was “did not have a significant effect” and the “effect on blood pressure” value (awake rats [4]; at the doses used (1, 5, 25 mg/kg oral gavage)) was “did not have any significant effect”.

Reference: patent US7939509B2, “Partial and full agonists of A1 adenosine receptors” (Gilead Sciences, Inc., priority 2002, dated 2011)
